Experimental data from patent publication EP3478687B1 (Daewoong Pharmaceutical Co., Ltd., priority 2016, dated 2018).
Each block holds one compound with its values, some of them ahead of it.

Assays:
[1] = biological target: T1, Recombinant purified human BTK (Homo sapiens, UniProt Q06187); assay: BTK kinase inhibitory activity, ADP-Glo kinase assay (Promega V9071); type: biochemical; conditions: for IC50: ATP 10 uM, 8 ng BTK per reaction, 1 hour 30 °C, chemiluminescence
T1 construct: purchased Promega V9071
Procedure: (§1) JAK3 and BTK kinase inhibitory activities were measured for the compounds prepared in the above Examples through in vitro analysis on the ADP Glow (Glo) platform.
(§2) Specifically, the inhibitory activities of JAK3 and BTK kinase were measured using a JAK3 kinase assay kit (Promega, V9441) and a BTK kinase assay kit (Promega, V9071) which were purchased from Promega. Recombinant purified human JAK3 and BTK were diluted with 1 x kinase reaction buffer (JAK3: 40 mM Tris-Cl, pH 7.5, 20 mM MgCh, 0.1 mg/mL BSA and 50 uM DTT / BTK: 40 mM Tris-Cl, pH 7.5, 20 mM MgCl2, 0.1 mg/mL BSA, 2 mM MnCl2 and 50 uM DTT) and added to a 96 well plate (JAK3: final concentration of 4 ng per reaction/BTK: final concentration of 8 ng per reaction). The compounds were treated so as to be finally a 1% DMSO aqueous solution, and a substrate cocktail containing ATP (JAK3: final concentration of 5 uM / BTK: final concentration of 10 uM) and 0.2 µg/µL of Poly(Glu4, Tyr1) peptide (JAK3 and BTK final concentration) in the total 25 µL reactants was added to a 96-well plate to initiate enzymatic reaction. After incubation (30 °C) for 1 hour, equivalent volume (25 µL per reaction) of ADP Glo was added and incubated (30 °C) for 40 minutes at room temperature. Then, a kinase detection reagent (50 µL per reaction) was added and incubated (30 °C) for 30 minutes at room temperature. The kinase activity was measured by chemiluminescence according to the instructions of ADP Glo kinase assay kit, and the inhibitory activity of the compounds according to the present invention was calculated. For the analysis of the results of each compound, Microsoft Excel was used, and IC50 values were calculated by SigmaPlot software.

[2] = biological target: T2, Recombinant purified human JAK3 (Homo sapiens, UniProt P52333); assay: JAK3 kinase inhibitory activity, ADP-Glo kinase assay (Promega V9441); type: biochemical; conditions: for IC50: ATP 5 uM, 4 ng JAK3 per reaction, 1 hour 30 °C, chemiluminescence
T2 construct: purchased Promega V9441
T2 sequence (P52333 1-1124): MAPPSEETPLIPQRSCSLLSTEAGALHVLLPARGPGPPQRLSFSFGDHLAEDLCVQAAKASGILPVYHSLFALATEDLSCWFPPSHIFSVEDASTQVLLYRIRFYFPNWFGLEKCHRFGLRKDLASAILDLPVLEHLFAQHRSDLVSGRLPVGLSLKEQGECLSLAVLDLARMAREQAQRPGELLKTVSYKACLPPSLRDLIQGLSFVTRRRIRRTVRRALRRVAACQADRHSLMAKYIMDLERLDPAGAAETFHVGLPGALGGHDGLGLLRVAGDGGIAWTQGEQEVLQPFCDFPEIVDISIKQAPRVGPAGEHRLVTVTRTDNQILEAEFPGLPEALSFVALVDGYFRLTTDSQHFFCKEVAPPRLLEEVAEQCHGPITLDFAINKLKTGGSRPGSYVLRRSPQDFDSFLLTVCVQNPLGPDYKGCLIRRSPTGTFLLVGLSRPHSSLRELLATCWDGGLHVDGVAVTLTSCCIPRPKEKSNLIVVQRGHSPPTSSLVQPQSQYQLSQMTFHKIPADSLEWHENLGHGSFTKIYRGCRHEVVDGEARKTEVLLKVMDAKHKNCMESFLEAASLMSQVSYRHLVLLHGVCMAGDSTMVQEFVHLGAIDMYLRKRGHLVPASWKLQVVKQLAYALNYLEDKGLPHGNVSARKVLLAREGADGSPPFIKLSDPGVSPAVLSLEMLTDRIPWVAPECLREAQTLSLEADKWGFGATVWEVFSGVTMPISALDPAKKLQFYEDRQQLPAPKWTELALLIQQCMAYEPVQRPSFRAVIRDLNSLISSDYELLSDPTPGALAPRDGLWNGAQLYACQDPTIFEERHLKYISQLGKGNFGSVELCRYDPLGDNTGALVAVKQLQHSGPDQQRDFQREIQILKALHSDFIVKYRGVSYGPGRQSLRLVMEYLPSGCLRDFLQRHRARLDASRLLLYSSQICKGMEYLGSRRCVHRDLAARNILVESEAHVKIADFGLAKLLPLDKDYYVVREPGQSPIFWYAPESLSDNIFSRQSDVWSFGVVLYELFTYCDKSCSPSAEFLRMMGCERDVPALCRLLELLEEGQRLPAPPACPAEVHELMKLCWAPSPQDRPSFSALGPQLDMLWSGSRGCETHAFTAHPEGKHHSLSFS
Procedure: as §1, §2

T1 sequence (Q06187 whole entry): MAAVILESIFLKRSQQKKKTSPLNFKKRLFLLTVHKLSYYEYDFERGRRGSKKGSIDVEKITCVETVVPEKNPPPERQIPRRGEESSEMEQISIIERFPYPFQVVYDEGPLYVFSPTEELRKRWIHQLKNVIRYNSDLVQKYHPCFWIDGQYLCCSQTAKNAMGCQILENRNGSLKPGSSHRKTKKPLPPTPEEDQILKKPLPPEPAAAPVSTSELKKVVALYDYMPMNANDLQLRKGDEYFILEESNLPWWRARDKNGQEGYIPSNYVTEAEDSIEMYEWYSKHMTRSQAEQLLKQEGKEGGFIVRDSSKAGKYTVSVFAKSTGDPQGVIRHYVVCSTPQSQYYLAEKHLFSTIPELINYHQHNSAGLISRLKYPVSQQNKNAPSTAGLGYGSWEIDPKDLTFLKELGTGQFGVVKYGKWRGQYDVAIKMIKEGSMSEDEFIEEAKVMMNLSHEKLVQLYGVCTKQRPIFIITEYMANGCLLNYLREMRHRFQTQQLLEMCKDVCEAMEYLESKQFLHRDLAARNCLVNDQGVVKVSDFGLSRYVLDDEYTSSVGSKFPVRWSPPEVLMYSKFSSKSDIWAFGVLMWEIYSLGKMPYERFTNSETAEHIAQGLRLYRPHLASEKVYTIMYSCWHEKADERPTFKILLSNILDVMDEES

Structure (SMILES): C=CC(=O)N1CCC[C@@H](Nc2nc(Nc3cnn(C)c3)nc3[nH]ncc23)C1 [Example 32, (R)-1-(3-(6-(1-methyl-1H-pyrazol-4-ylamino)-1H-pyrazolo[3,4-d]pyrimidin-4-ylamino)piperidin-1-yl)prop-2-en-1-one]
IC50 [1]: 2.8 nM
IC50 [2]: 10.7 nM

Structure (SMILES): C=CC(=O)N1CC[C@@H](C)[C@@H](Nc2nc(Nc3cnn(CCC)c3)nc3[nH]nc(Cl)c23)C1 [Example 121, 1-((3R,4R)-3-((3-chloro-6-((1-propyl-1H-pyrazol-4-yl)amino)-1H-pyrazolo[3,4-d]pyrimidin-4-yl)amino)-4-methylpiperidin-1-yl)prop-2-en-1-one]
IC50 [1]: 4.9 nM
IC50 [2]: 18 nM

Structure (SMILES): C=CC(=O)N1CCC[C@@H](Nc2nc(Nc3ccc(Oc4ccccc4)cc3)nc3[nH]ccc23)C1 [Example 13, (R)-1-(3-(2-(4-phenoxyphenylamino)-7H-pyrrolo[2,3-d]pyrimidin-4-ylamino)piperidin-1-yl)prop-2-en-1-one]
inhibition at 1 µM ([1]; @1uM compound): 1%
inhibition at 1 µM ([2]; @1uM compound, printed in the JAK3 IC50 column): 0.4%

Structure (SMILES): C=CC(=O)N1CCC[C@@H](Nc2nc(Nc3cnn(C4CCOCC4)c3)nc3[nH]nc(Cl)c23)C1 [Example 48, (R)-1-(3-(3-chloro-6-(1-(tetrahydro-2H-pyran-4-yl)-1H-pyrazol-4-ylamino)-1H-pyrazolo[3,4-d]pyrimidin-4-ylamino)piperidin-1-yl)prop-2-en-1-one]
IC50 [1]: 0.9 nM
IC50 [2]: 0.4 nM

Structure (SMILES): C=CC(=O)N1CCC[C@@H](Nc2nc(Nc3ccc(N(C)C)cc3)nc3[nH]ccc23)C1 [Example 9, (R)-1-(3-(2-(4-(dimethylamino)phenylamino)-7H-pyrrolo[2,3-d]pyrimidin-4-ylamino)piperidin-1-yl)prop-2-en-1-one]
IC50 [1]: 20.5 nM
IC50 [2]: 3.9 nM

Structure (SMILES): C=CC(=O)N1CCC[C@@H](Nc2nc(Nc3cnn(CC(=O)NC)c3)nc3[nH]cc(Cl)c23)C1 [Example 60, (R)-2-(4-((4-((1-acryloylpiperidin-3-yl)amino)-5-chloro-7H-pyrrolo[2,3-d]pyrimidin-2-yl)amino)-lH-pyrazol-1-yl)-N-methylacetamide]
IC50 [1]: 1.7 nM
IC50 [2]: 0.2 nM

Structure (SMILES): C=CC(=O)N1CCC[C@@H](Nc2nc(Nc3cc(C)ns3)nc3[nH]cc(F)c23)C1 [Example 83, (R)-1-(3-((5-2-((3-methylisothiazol-5-yl)amino)-7H-pyrrolo[2,3-d]pyrimidin-4-yl)amino)piperidin-1-yl)prop-2-en-1-one]
IC50 [1]: 3.4 nM
IC50 [2]: 1.2 nM

Structure (SMILES): C=CC(=O)N1CCC[C@@H](N(C)c2nc(Nc3cnoc3)nc3[nH]ccc23)C1 [Example 102]
IC50 [1]: 146 nM
IC50 [2]: 13.2 nM

Structure (SMILES): C=CC(=O)N1CCC[C@@H](Nc2nc(Nc3cnn(CC)c3)nc3[nH]cc(Cl)c23)C1 [Example 37, (R)-1-(3-(5-chloro-2-(1-ethyl-1H-pyrazol-4-ylamino)-7H-pyrrolo[2,3-d]pyrimidin-4-ylamino)piperidin-1-yl)prop-2-en-1-one]
IC50 [1]: 2.5 nM
IC50 [2]: 0.1 nM

Structure (SMILES): C=CC(=O)N1CC[C@@H](F)[C@@H](Nc2nc(Nc3cnn(CC)c3)nc3[nH]cc(F)c23)C1 [Example 86, 1-((3S,4R)-3-((2-((1-ethyl-1H-pyrazol-4-yl)amino)-5-fluoro-7H-pyrrolo[2,3-d]pyrimidin-4-yl)amino)-4-fluoropiperidin-1-yl)prop-2-en-1-one]
IC50 [1]: 1 nM
IC50 [2]: 0.4 nM

Structure (SMILES): C=CC(=O)N1CCC[C@@H](Nc2nc(Nc3ccc4ncsc4c3)nc3[nH]ccc23)C1 [Example 12, (R)-1-(3-(2-(benzo[d]thiazol-6-ylamino)-7H-pyrrolo[2,3-d]pyrimidin-4-ylamino)piperidin-1-yl)prop-2-en-1-one]
IC50 [1]: 10.6 nM
IC50 [2]: 1.3 nM

Structure (SMILES): C=CC(=O)N1CCC[C@@H](Nc2nc(Nc3cnoc3)nc3[nH]nc(Cl)c23)C1 [Example 59, (R)-1-(3-(3-chloro-6-(isoxazol-4-ylamino)-1H-pyrazolo[3,4-d]pyrimidin-4-ylamino)piperidin-1-yl)prop-2-en-1-one]
IC50 [1]: 1.8 nM
IC50 [2]: 1.4 nM

More lines, now with the values ahead:

IC50 [1]: 2.1 nM
IC50 [2]: 1.4 nM
Structure (SMILES): C=CC(=O)N1CCC[C@@H](Oc2nc(Nc3cnn(CC)c3)nc3[nH]nc(Cl)c23)C1 [Example 147]

IC50 [1]: 2.3 nM
IC50 [2]: 42.3 nM
Structure (SMILES): C=CC(=O)N1CCC[C@@H](Nc2nc(Nc3cnn(C4CC4)c3)nc3[nH]nc(SC)c23)C1 [Example 129]

IC50 [1]: 0.726 nM
IC50 [2]: 3 nM
Structure (SMILES): C=CC(=O)N1CCC[C@@H](Nc2nc(Nc3cnn(C(C)(C)C)c3)nc3[nH]nc(SC)c23)C1 [Example 192, (R)-1-(3-((6-((1-(tert-butyl)-1H-pyrazol-4-yl)amino)-3-(methylthio)-1H-pyrazolo [3,4-d]pyrimidin-4-yl)amino)piperidin-1-yl)prop-2-en-1-one]

IC50 [1]: 2.5 nM
IC50 [2]: 54.2 nM
Structure (SMILES): N#C/C(=C\C1CC1)C(=O)N1CCC[C@@H](Oc2nc(Nc3cnn(C4CC4)c3)nc3[nH]nc(Cl)c23)C1 [Example 154, (R,E)-2-(3-((3-chloro-6-((1-cyclopropyl-1H-pyrazol-4-yl)amino)-1H-pyrazolo[3,4-d]pyrimidin-4-yl)oxy)piperidine-1-carbonyl)-3-cyclopropylacrylonitrile]

IC50 [1]: 0.721 nM
IC50 [2]: 3.4 nM
Structure (SMILES): C=CC(=O)N1CCC[C@@H](Nc2nc(Nc3cnn(CC)c3)nc3[nH]nc(SC)c23)C1 [Example 189, (R)-1-(3-((6-((1-ethyl-1H-pyrazol-4-yl)amino)-3-(methylthio)-1H-pyrazolo [3,4-d]pyrimidin-4-yl)amino)piperidin-1-yl)prop-2-en-1-one]

IC50 [1]: 3.5 nM
IC50 [2]: 8.4 nM
Structure (SMILES): C=CC(=O)N1CC[C@@H](C)[C@@H](Nc2nc(Nc3cnn(CC(C)C)c3)nc3[nH]nc(Cl)c23)C1 [Example 124, 1-((3R,4R)-3-((3-chloro-6-((1-isobutyl-1H-pyrazol-4-yl)amino)-1H-pyrazolo[3,4-d]pyrimidin-4-yl)amino)-4-methylpiperidin-1-yl)prop-2-en-1-one]

IC50 [1]: 2.2 nM
IC50 [2]: 0.9 nM
Structure (SMILES): CCn1cc(Nc2nc(N[C@@H]3CCCN(C(=O)/C(C#N)=C/C4CC4)C3)c3cc[nH]c3n2)cn1 [Example 171, (R,E)-3-cyclopropyl-2-(3-((2-((1-ethyl-1H-pyrazol-4-yl)amino)-7H-pyrrolo[2,3-d]pyrimidin-4-yl)amino)piperidine-1-carbonyl)acrylonitrile]

IC50 [1]: 2.2 nM
IC50 [2]: 53.7 nM
Structure (SMILES): CCn1cc(Nc2nc(O[C@@H]3CCCN(C(=O)/C(C#N)=C/C4CC4)C3)c3c(Cl)n[nH]c3n2)cn1 [Example 155, (R,E)-2-(3-((3-chloro-6-((1-ethyl-1H-pyrazol-4-yl)amino)-1H-pyrazolo[3,4-d]pyrimidin-4-yl)oxy)piperidine-1-carbonyl)-3-cyclopropylacrylonitrile]

IC50 [1]: 1.2 nM
IC50 [2]: 2.9 nM
Structure (SMILES): C=CC(=O)N1CC[C@@H](C)[C@@H](Nc2nc(Nc3cnn(CC#N)c3)nc3[nH]nc(Cl)c23)C1 [Example 126, 2-(4-((4-(((3R,4R)-1-acryloyl-4-methylpiperidin-3-yl)amino)-3-chloro-1H-pyrazolo[3,4-d]pyrimidin-6-yl)amino)-1H-pyrazol-1-yl)acetonitrile]
